# Tested on: Southern Root-Knot Nematode (Meloidgyne incognita)
# Assay: Test on southern root-knot nematode (soil incorporation)
# Format: in vivo
# Design: key: 0: No knot was formed; 1: Knots were formed to a slight degree; 2: Knots were formed to a moderate degree; 3: Knots were formed to a heavy degree; 4: Knots were formed to the heaviest degree
# Details: 7 ml of 1600 ppm solution to 300 ml contaminated soil, tomato seedling, three to four weeks after transplantation
# Protocol: Test on Southern Root-Knot Nematode (Meloidgyne incognita) (Soil Incorporation)
# To 300 ml of the soil contaminated by southern root-knot nematode, 7 ml of a chemical solution having the concentration of the compound of the present invention adjusted to be 1600 ppm, is poured, followed by mixing so that the compound is uniformly dispersed. The treated soil is put into a pot (diameter: 9 cm, height: 8 cm), and then a tomato seedling in 2-leaf stage is transplanted and placed in a greenhouse. After three to four weeks from the transplantation of the tomato, the root knot index is determined based on the following standards. […] For example, the compound Nos. 1-25, 1-26, 1-73, 1-100, 1-122, 1-123, 1-125, 1-127, 1-130, 1-131, 1-133, 1-136, 1-137, 1-139, 1-140, 1-172, 1-173, 1-177, 5-5, 5-9, 5-11, 5-16, 5-20, 8-2, 8-5, 13-2, 13-4, 13-6, 13-7, 13-18, 13-19, 13-44, 13-45, 16-32, 16-37 and 16-38 were at a level of a root knot index of not more than 1.
row,Compound,root knot index
1,"2-fluoro-N-[2-[(2,2,3,3,-tetrafluoro-5-methyl-1,4-benzodioxan-6-yl)carbonyl]-2-propyl]benzamide [Compound No. 16-37]",1
2,"CC(C)(NC(=O)c1c(F)cccc1F)C(=O)c1ccc(OS(C)(=O)=O)cc1 [Compound No. 1-25, 2,6-difluoro-N-[(1,1-dimethyl-4′-methylsulfonyloxy)phenacyl]benzamide]",1
3,"CC(C)(NC(=O)c1c(F)cccc1F)C(=O)c1ccc(OS(=O)(=O)C(F)(F)F)cc1 [Compound No. 1-26, 2,6-difluoro-N-[(1,1-dimethyl-4′-trifluoromethylsulfonyloxy)phenacyl]benzamide]",1
4,"CC(C)(NC(=O)c1ccccc1C(N)=O)C(=O)c1ccc(Cl)cc1 [Compound No. 1-122, 2-aminocarbonyl-N-[(4′-chloro-1,1-dimethyl)phenacyl]benzamide]",1

# Tested on: not given
# Assay: not given
# Details: not given
row,melting point [°C],Compound
1,139 to 142,"CC(C)(NC(=O)c1c(F)cccc1F)C(=O)c1ccsc1 [Compound No. 6-5, 2,6-difluoro-N-[1-methyl-1-(3-thenoyl)ethyl]benzamide]"
2,116 to 119,"CC(C)(NC(=O)c1c(F)cccc1F)C(=O)c1ccc(C(F)(F)F)cn1 [Compound No. 8-43, 2,6-difluoro-N-[2-(5-trifluoromethyl-2-pyridylcarbonyl)-2-propyl]benzamide]"

# From patent US8093241B2, “Acid amide derivatives, process for their production and pesticides containing them” (Ishihara Sangyo Kaisha, Ltd., priority 2001, dated 2012)
